Data from US10508168B2, “Thermoplastic polymer, method of preparing thermoplastic polymer, and thermoplastic polymer composition including thermoplastic polymer” (LG CHEM, LTD., priority 2015, dated 2019).

Assay: TGA test of thermal stability of emulsifier fatty acids
Type: physicochemical
Conditions: for Temperature at which loss of 5% by weight (w/w) occurs / Temperature at which loss of 50% by weight (w/w) occurs: Table 2; for Thermal stability (TGA comparison): result in words
Source text: The present inventors first performed a process of selecting emulsifier candidates to substitute for a conventionally used fatty acid-based emulsifier so as to change the emulsifier among the aforementioned materials, and then selected an emulsifier having relatively high thermal stability through a boiling point test and a TGA test in accordance with the purpose of the present invention of reducing the amount of gas generated in high-temperature extrusion and injection-molding processes.
FIG. 2 illustrates TGA test comparison results of hydrogenated ricinoleic acid as a chain-type fatty acid including a functional group according to the present invention, stearic acid as saturated fatty acid not including a branch group or a functional group, and fatty acid (FAD acid: mixture of palmitic acid, oleic acid, and stearic acid) included in a conventionally used fatty acid-based emulsifier.

SMILES | Temperature at which loss of 5% by weight (w/w) occurs (TGA) [°C] | Temperature at which loss of 50% by weight (w/w) occurs (TGA) [°C] | Thermal stability (TGA comparison) | Loss amount at 270° C. (TGA, 270° C., Table 1) [% by weight] | Temperature at which loss of 10% by weight occurs (TGA, Table 1) [° ° C.]
CCCCCCC(O)CCCCCCCCCCC(=O)O (centres unmarked) [Hydrogenated ricinoleic acid, 12-hydroxy octadecanoic acid] | 263 | 455 | superior to stearic acid and fatty acid |  | 
CCCCCC[C@@H](O)C/C=C\CCCCCCCC(=O)O [Ricinoleic acid, ricinoleic acid] |  |  | superior to fatty acid | 9 | 273
CCCCCCCCCCCCCCCCCC(=O)O [Stearic acid, stearic acid, reference compound] | 237 | 289 |  |  | 
